# Assay results reported in PMC10675340, “Preparation, Radiolabeling with ^68Ga/^177Lu and Preclinical Evaluation of Novel Angiotensin Peptide Analog: A New Class of Peptides for Breast Cancer Targeting” (Pharmaceuticals, 2023).
# Where a SMILES comes first, the peptide text is derived from it. Where no end group is shown, it is not given here. [ ]: non-standard residue; d: D form. The star is where a group is joined. DOTA = O=C(O)CN1CCN(CC(=O)O)CCN(CC(=O)*)CCN(CC(=O)O)CC1; βAla = NCCC(=O)O
# Key:
# [1] = In vitro metabolic stability in human plasma; type: in vitro ADME; conditions: 37 °C, radio-HPLC
# Procedure: High proteolytic stability is an important aspect of the tumor-targeting peptides to deliver the highest possible tumor-targeting effect. The extent of proteolytic degradation of the ^177Lu-AngII peptide was determined by incubating the radiolabeled peptide with human plasma at 37° C for up to 5 h. […] A limited release of free ^177Lu amount (up to 10%) indicates the high in vitro plasma stability of the radiolabeled peptide, with low enzymatic breakdown by plasma proteases (Figure 2).
# Human plasma was obtained from the institutional blood bank from volunteers’ blood donors (with consent). The metabolic stability of ^177Lu-DOTA-AngII peptide was determined following a method essentially as described previously. In summary, the radiolabeled peptide (50 μL) was mixed with plasma (400 μL) and incubated in duplicate at 37 °C for up to 5 h. After incubation, the plasma proteins were precipitated using a mixture of CH3CN/EtOH (1:1 v/v, 400 μL). The supernatant layer was collected by centrifugation (5000 rpm for 5 min), filtered through a 0.2-µm Millex GP filter, and analyzed by radio-HPLC to assess the product stability.
# Balb/c mice = test: In vivo biodistribution in normal Balb/c mice; parameters: species or system mouse; conditions: Balb/c mice
# Procedure: The in vivo biodistribution of ^68Ga-labeled AngII peptide analog was carried out in female Balb/c mice, at various time points, to observe the uptake in the normal tissues and organs and find the excretion route of the radiolabeled peptides. […] Low uptake and retention of the radiopeptide in the liver varying from 1.54 ± 0.28% ID/g at 45 min to 0.48 ± 0.17% ID/g at 2 h p.i. is probably related to the high hydrophilicity (log p = −0.55 ± 0.11) of the ^68Ga-labeled AngII peptide analog. […] The efficient clearance from the kidneys is possibly associated with the urinary excretion of the radiopeptide. […] The low amount of uptake in the bone (up to 0.37 ± 0.14% ID/g) (Table 2) indicates the minimal breakdown of the ^68Ga-labeled AngII peptide complex in vivo combined with the minor release of free ^68Ga. These findings are in agreement with the high in vitro metabolic stability observed in the human plasma for the radiolabeled AngII peptide. The accumulation in the extremely vascular organ lungs was also low (up to 1.11 ± 0.37% ID/g) signifying a low trapping by the lungs.
# Approval from the Institutional Animal Care and Use Committee was obtained for the animal protocol used. Additionally, strict international regulations govern the safe and proper use of laboratory animals employed during animal experiments. In vivo, biodistribution was performed on healthy female mice according to the methods essentially described previously. In summary, Balb/c mice (n = 5 per time point, body mass 20–25 g) at 45 min and 2 h were administered with the HPLC-purified AngII peptide (~1 µg, 100 µL, 0.925–1.85 MBq; 25–50 µCi) via lateral tail vein injection. At the specified time points, the animals were sacrificed by cervical dislocation. A fraction of the blood was collected from cardiac puncture. Urine was also collected and measured with the bladder contents. Major organs, such as the lungs, pancreas, stomach, liver, heart, kidneys, and intestines were isolated, weighed, and measured for radioactivity. The uptake values of the radiolabeled peptide in different organs are expressed as the percent injected dose per gram (% ID/g) of tissue/organ. The radioactivity in the urine with bladder contents is shown as the percent of the injected dose per organ (% ID/organ). To calculate the injected dose, a standard (20-fold dilution of injected dose) was prepared and counted together with animal tissue samples.
# [2] = system: human breast cancer cells; conditions: cited from earlier work
# Procedure: The values were 27.73 ± 5.97 nM for MDA-MB-231 and 35.14 ± 7.09 nM for the MCF7 breast cancer cell line. Thes ...
Compound,"remaining at 5 h ([1]; human plasma 400 μL + 50 μL radiopeptide, duplicate, CH3CN/EtOH precipitation, read-out: Radioactivity still associated with the radiolabeled peptide) [%]","Release of free ^177Lu ([1]; human plasma, 5 h)",Biological and excretion pattern compared with the ^68Ga-labeled counterpart (Balb/c mice),Kd [2] [nM]
"CC[C@H](C)[C@H](NC(=O)[C@H](Cc1ccc(O)cc1)NC(=O)[C@@H](NC(=O)[C@H](CCCNC(=N)N)NC(=O)[C@H](CC(=O)O)NC(=O)CCNC(=O)[C@H](CCCCN)NC(=O)CN1CCN(CC(=O)O)CCN(CC(=O)O)CCN(CC(=O)O)CC1)C(C)C)C(=O)N[C@@H](Cc1c[nH]cn1)C(=O)N1CCC[C@H]1C(=O)N[C@@H](Cc1ccccc1)C(=O)N[C@@H](Cc1c[nH]c2ccccc12)C(=O)N[C@@H](CCCCN)C(=O)N[C@@H](Cc1ccc(O)cc1)C(N)=O [^177Lu-DOTA-AngII peptide, metal not drawn] ({DOTA}-K[βAla]DRVYIHPFWKY-NH2)",> 90,up to 10%,more or less the same biological and excretion pattern,–
"^125I-angiotensin II: radioiodinated angiotensin II from the literature, ref 13 (DRVYIHPF; also: radioiodinated (125I label), site not given here; UniProt P01019 25-32, looked up)",–,–,–,~60
